Laboratory results from US20060100431A1, “Biologically active compounds” (Amura Therapeutics Limited, priority 2002, published 2006).

Legend:
Format in all cases: biochemical
Bovine cathepsin S = biological target: T1, Bovine cathepsin S (Bos taurus, UniProt P25326); experiment: Cathepsin S peptidase activity assay, bovine enzyme (Ki); conditions: species of cathepsin S not given; read-out: Ki, inhibitors of cathepsin S
T1 construct: purchased CN Biosciences
Procedure: Unless otherwise stated, all general chemicals and biochemicals were purchased from either the Sigma Chemical Company, Poole, Dorset, U.K or from Fisher Scientific UK, Loughborough, Leicestershire, U.K. Absorbance assays were carried out in flat-bottomed 96-well plates (Spectra; Greiner Bio-One Ltd., Stonehouse, Gloucestershire, U.K.) using a SpectraMax PLUS384 plate reader (Molecular Devices, Crawley, U.K.). Fluorescence high throughput assays were carried out in either 384-well microtitre plates (Corning Costar 3705 plates, Fisher Scientific) or 96-well ‘U’ bottomed Microfluor W1 microtitre plates (Thermo Labsystems, Ashford, Middlesex, U.K.). Fluorescence assays were monitored using a SpectraMax Gemini fluorescence plate reader (Molecular Devices). For substrates employing either a 7-amino-4-methylcoumarin (AMC) or a 7-amino-4-trifluoromethylcoumarin (AFC) fluorophore, assays were monitored at an excitation wavelength of 365 nm and an emission wavelength of 450 nm and the fluorescence plate reader calibrated with AMC. For substrates employing a 3-amino-benzoyl (Abz) fluorophore, assays were monitored at an excitation wavelength of 310 nm and an emission wavelength of 445 nm; the fluorescence plate reader calibrated with 3-amino-benzamide (Fluka). Unless otherwise indicated, all the peptidase substrates were purchased from Bachem UK, St Helens, Merseyside, UK. Substrates utilizing fluorescence resonance energy transfer methodology (i.e. FRET-based substrates) were synthesized at Incenta Limited using published methods (Atherton & Sheppard, Solid Phase Peptide Synthesis, IRL Press, Oxford, U.K, 1989) and employed Abz (2-aminobenzoyl) as the fluorescence donor and 3-nitro-tyrosine [Tyr(NO2)] as the fluorescence quencher (Meldal, M. and Breddam, K., Anal. Biochem, 195, 141-147, 1991). Hydroxyethylpiperazine ethanesulfonate (HEPES), tris-hydroxylmethyl aminomethane (tris) base, bis-tris-propane and all the biological detergents (e.g. CHAPS, zwittergents, etc.) were purchased from CN Biosciences UK, Beeston, Nottinghamshire, U.K. Glycerol was purchased from Amersham Pharmacia Biotech, Little Chalfont, Buckinghamshire, U.K. Stock solutions of substrate or inhibitor were made up to 10 mM in 100% dimethylsulfoxide (DMSO) (Rathburns, Glasgow, U.K.) and diluted as appropriately required. In all cases the DMSO concentration in the assays was maintained at less than 1% (vol./vol.).
Assay protocols were based on literature precedent (Table 4; Barrett, A. J., Rawlings, N. D. and Woessner, J. F., 1998, Handbook of Proteolytic Enzymes, Academic Press, London and references therein) and modified as required to suit local assay protocols. Enzyme was added as required to initiate the reaction and the activity, as judged by the change in fluorescence upon conversion of substrate to product, was monitored over time. All assays were carried out at 25±1° C.
Bovine cathepsin S, human cathepsin L, human cathepsin H and human cathepsin B were obtained from CN Biosciences. Recombinant human cathepsin S, human cathepsin K and human cathepsin X were obtained from Dr. Boris Turk (Josef Stefan Institute, Ljubljana, Slovenia). Unless otherwise stated, all peptidase activity assays were carried out in 10 mM bis-tris-propane (BTP), pH 6.5 containing 1 mM EDTA, 5 mM 2-mercaptoethanol and 1 mM CaCl2. Human cathepsin H activity assays were carried out in 10 mM BTP pH 6.5, 142 mM NaCl2, 1 mM CaCl2, 1 mM EDTA, 1 mM DTT, 0.035 mM Zwittergent 3-16. Human cathepsin K assays were carried out in 100 mM sodium acetate; pH 5.5 containing 20 mM L-cysteine and 1 mM EDTA (Bossard, M. J., et. al., J. Biol. Chem., 21, 12517-12524, 1996). Human cathepsin X assays were carried out in 100 mM sodium acetate; pH 5.5 containing 20 mM L-cysteine; 0.05% (w/v) Brij 35 and 1 mM EDTA (Santamaria, I., et. al., J. Biol. Chem., 273, 16816-16823, 1998; Klemencic, J, et al., Eur. J. Biochem., 267, 5404-5412, 2000).

Wild-type cruzipain = Wild-type cruzipain (Trypanosoma cruzi, UniProt P25779); experiment: Trypanosoma cruzi cruzipain peptidase activity assay (Ki); conditions: read-out: Ki, inhibitors of cruzain and cruzipains
How it was run: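 Native cruzipain from T. cruzi Dm28 epimastigotes, 2.5 nM, in 100 mM sodium phosphate pH 6.75 with 1 mM EDTA and 10 mM L-cysteine, 25 °C, DMSO <1%. Rates taken from continuous fluorogenic substrate read; Ki by regression assuming reversible pure-competitive inhibition.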

CPB2.8ΔCTE = biological target: T2, CPB2.8ΔCTE (Leishmania mexicana, UniProt P36400); experiment: Leishmania mexicana cysteine protease B (CPB) peptidase activity assay (Ki); conditions: Ki, inhibitors of Leismania mexicana CPB protease
T2 construct: Wild-type recombinant CPB without the C-terminal extention (i.e. CPB2.8ΔCTE); Dr. Jeremy Mottram (Wellcome Centre for Molecular Parasitology, University of Glasgow)
How it was run: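 Recombinant CPB2.8ΔCTE (0.25 nM) was assayed in 100 mM sodium acetate pH 5.5 with 1 mM EDTA, 200 mM NaCl and 10 mM DTT at 25 °C, DMSO <1%, enzyme added to start. Rates were taken from continuous fluorescence slopes; apparent Ki was fitted assuming reversible, pure-competitive inhibition.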

human cathepsin B = biological target: T3, human cathepsin B (Homo sapiens, UniProt P07858); experiment: Cathepsin B peptidase activity assay (Ki); conditions: read-out: Ki, inhibitors of cathepsin B
T3 construct: purchased CN Biosciences
How it was run: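 Buffer: 10 mM bis-tris-propane pH 6.5, 1 mM EDTA, 5 mM 2-mercaptoethanol, 1 mM CaCl2; DMSO <1%. Ki assumed reversible, pure-competitive, from Ki^app=Ki(1+[So]/KM^app) by non-linear regression.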

human cathepsin L = biological target: T4, human cathepsin L (Homo sapiens, UniProt P07711); experiment: Cathepsin L peptidase activity assay (Ki); conditions: read-out: Ki, inhibitors of cathepsin L
T4 construct: purchased CN Biosciences
How it was run: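 Human cathepsin L at 1 nM with Ac-Phe-Arg-AMC at its KM^app (~20 μM) in 10 mM bis-tris-propane pH 6.5, 1 mM EDTA, 5 mM 2-mercaptoethanol, 1 mM CaCl2, DMSO <1%, 25±1° C. Reaction enzyme-initiated; AMC fluorescence (ex 365/em 450 nm) monitored over time.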

Measured: Ki

T2 sequence (P36400 126-343, stated change not applied): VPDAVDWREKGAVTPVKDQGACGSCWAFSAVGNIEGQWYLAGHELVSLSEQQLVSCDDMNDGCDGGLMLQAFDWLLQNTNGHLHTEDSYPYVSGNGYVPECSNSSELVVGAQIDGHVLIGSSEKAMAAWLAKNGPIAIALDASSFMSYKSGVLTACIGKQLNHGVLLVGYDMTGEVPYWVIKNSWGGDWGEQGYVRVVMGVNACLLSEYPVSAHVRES
Chain of Wild-type cruzipain (P25779 whole entry): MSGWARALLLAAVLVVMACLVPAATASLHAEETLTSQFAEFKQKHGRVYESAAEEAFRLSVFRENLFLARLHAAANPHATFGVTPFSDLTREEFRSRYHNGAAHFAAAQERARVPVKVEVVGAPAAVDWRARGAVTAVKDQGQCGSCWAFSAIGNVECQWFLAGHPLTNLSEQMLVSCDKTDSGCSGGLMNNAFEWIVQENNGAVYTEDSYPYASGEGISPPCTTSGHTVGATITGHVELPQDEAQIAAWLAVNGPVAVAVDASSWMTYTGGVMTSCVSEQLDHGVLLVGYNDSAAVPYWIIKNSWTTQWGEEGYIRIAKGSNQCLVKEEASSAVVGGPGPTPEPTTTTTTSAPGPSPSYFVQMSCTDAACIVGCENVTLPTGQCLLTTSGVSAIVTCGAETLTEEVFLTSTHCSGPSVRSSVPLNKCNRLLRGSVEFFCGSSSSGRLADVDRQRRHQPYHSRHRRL
T4 sequence (P07711 114-333): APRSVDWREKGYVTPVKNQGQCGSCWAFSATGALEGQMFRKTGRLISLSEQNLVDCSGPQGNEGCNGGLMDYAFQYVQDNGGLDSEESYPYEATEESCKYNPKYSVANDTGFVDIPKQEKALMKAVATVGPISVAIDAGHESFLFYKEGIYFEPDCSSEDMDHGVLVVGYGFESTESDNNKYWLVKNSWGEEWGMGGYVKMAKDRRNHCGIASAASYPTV
T1 sequence (P25326 115-331): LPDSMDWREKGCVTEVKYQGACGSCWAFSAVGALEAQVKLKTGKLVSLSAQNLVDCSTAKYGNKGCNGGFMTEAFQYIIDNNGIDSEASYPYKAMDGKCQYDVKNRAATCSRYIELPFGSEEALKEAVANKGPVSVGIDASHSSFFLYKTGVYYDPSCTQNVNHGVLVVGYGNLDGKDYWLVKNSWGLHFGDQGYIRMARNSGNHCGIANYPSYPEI

CC(C)C[C@H](NC(=O)c1ccc(Oc2ccccc2)cc1)C(=O)N1CC[C@@H]2[C@H]1C(=O)CN2C(=O)c1ccccc1 [Example 39, (3aR,6aS)-N-[(1S)-1-(4-Benzoyl-6-oxo-hexahydro-pyrrolo[3,2-b]pyrrole-1-carbonyl)-3-methyl-butyl]-4-phenoxy-benzamide]
not listed: human cathepsin L
< 5 µM: all other assays above

CC(C)C[C@H](NC(=O)c1ccc(N)cc1)C(=O)N1CC[C@@H]2[C@H]1C(=O)CN2C(=O)c1cccc(S(C)(=O)=O)c1 [Example 61, (3aR,6aS)-4-Amino-N-{(1S)-1-[4-(3-methanesulfonyl-benzoyl)-6-oxo-hexahydro-pyrrolo[3,2-b]pyrrole-1-carbonyl]-3-methyl-butyl}-benzamide]
< 5 µM: Bovine cathepsin S | Wild-type cruzipain | human cathepsin B

CC[C@H](C)[C@H](NC(=O)OCc1ccccc1)C(=O)N1CC(=O)[C@@H]2[C@H]1CCN2C(=O)[C@H](CC(C)C)NC(=O)c1ccc(N(C)C)cc1 [Example 161, (3 aS,6aR)-((1S,2S)-1-{4-[(2S)-2-(4-Dimethylamino-benzoylamino)-4-methyl-pentanoyl]-3-oxo-hexahydro-pyrrolo[3,2-b]pyrrole-1-carbonyl}-2-methyl-butyl)-carbamic acid benzyl ester]
not listed: human cathepsin B
< 5 µM: all other assays above

CC(C)C[C@H](NC(=O)c1ccc(N(C)C)cc1)C(=O)N1CC[C@@H]2[C@H]1C(=O)CN2C(=O)c1ccsc1 [Example 164, (3aR,6aS)-4-Dimethylamino-N-{(1S)-3-methyl-1-[6-oxo-4-(thiophene-3-carbonyl)-hexahydro-pyrrolo[3,2-b]pyrrole-1-carbonyl]-butyl}-benzamide]
not listed: human cathepsin B
< 5 µM: all other assays above

Cc1ccc(C(=O)N[C@@H](CC(C)C)C(=O)N2CC[C@@H]3[C@H]2C(=O)CN3C(=O)c2ccccc2)cc1 [Example 170]
not listed: human cathepsin B
< 5 µM: all other assays above

CCc1ccc(C(=O)N[C@@H](CC(C)C)C(=O)N2CC[C@@H]3[C@H]2C(=O)CN3C(=O)c2ccccc2)cc1 [Example 171, (3aR,6aS)-N-[(1S)-1-(4-Benzoyl-6-oxo-hexahydro-pyrrolo[3,2-b]pyrrole-1-carbonyl)-3-methyl-butyl]-4-ethyl-benzamide]
not listed: human cathepsin B
< 5 µM: all other assays above

CC(C)C[C@H](NC(=O)c1ccc(C(C)C)cc1)C(=O)N1CC[C@@H]2[C@H]1C(=O)CN2C(=O)c1ccccc1 [Example 172, (3aR,6aS)-N-[(1S)-1-(4-Benzoyl-6-oxo-hexahydro-pyrrolo[3,2-b]pyrrole-1-carbonyl)-3-methyl-butyl]-4-isopropyl-benzamide]
not listed: human cathepsin B
< 5 µM: all other assays above

CC(C)C[C@H](NC(=O)c1ccccc1)C(=O)N1CC[C@@H]2[C@H]1C(=O)CN2C(=O)c1ccccc1 [Example 174, (3aR,6aS)-N-[(1S)-1-(4-Benzoyl-6-oxo-hexahydro-pyrrolo[3,2-b]pyrrole-1-carbonyl)-3-methyl-butyl]-benzamide]
not listed: human cathepsin B
< 5 µM: all other assays above

CC(C)C[C@H](NC(=O)c1cccc(CN)c1)C(=O)N1CC[C@@H]2[C@H]1C(=O)CN2C(=O)c1ccccc1S(C)(=O)=O [Example 185, (3aR,6aS)-3-Aminomethyl-N-{(1S)-1-[4-(2-methanesulfonyl-benzoyl)-6-oxo-hexahydro-pyrrolo[3,2-b]pyrrole-1-carbonyl]-3-methyl-butyl}-benzamide]
not listed: human cathepsin B
< 5 µM: all other assays above

CC(C)C[C@H](NC(=O)c1ccc(N2CCCC2)cc1)C(=O)N1CC[C@@H]2[C@H]1C(=O)CN2C(=O)c1ccccc1 [Example 193, (3aR,6aS)-N-[(1S)-1-(4-Benzoyl-6-oxo-hexahydro-pyrrolo[3,2-b]pyrrole-1-carbonyl)-3-methyl-butyl]-4-pyrrolidin-1-yl-benzamide]
not listed: human cathepsin B
< 5 µM: all other assays above

CCC[C@H](NC(C)=O)C(=O)N1CC(=O)[C@@H]2[C@H]1CCN2C(=O)[C@H](CC(C)C)NC(=O)c1ccc(N(C)C)cc1 [Example 245, (3aR,6aS)-N-{(1S)-1-[4-((2S)-2-Acetylamino-pentanoyl)-6-oxo-hexahydro-pyrrolo[3,2-b]pyrrole-1-carbonyl]-3-methyl-butyl}-4-dimethylamino-benzamide]
not listed: human cathepsin B
< 5 µM: all other assays above

O=C(N[C@@H](Cc1ccc(O)cc1)C(=O)N1CC[C@@H]2[C@H]1C(=O)CN2C(=O)c1ccccc1)c1cccc(Br)c1 [Example 298, (3aR,6aS)-N-[(1S)-2-(4-Benzoyl-6-oxo-hexahydro-pyrrolo[3,2-b]pyrrol-1-yl)-1-(4-hydroxy-benzyl)-2-oxo-ethyl]-3-bromo-benzamide]
< 5 µM: Bovine cathepsin S | Wild-type cruzipain | human cathepsin B

Nc1ccc(C(=O)N2CC(=O)[C@@H]3[C@H]2CCN3C(=O)[C@H](Cc2ccc(O)cc2)NC(=O)c2cccc(Br)c2)cc1 [Example 310, (3aR,6aS)-N-[(1S)-2-[4-(4-Amino-benzoyl)-6-oxo-hexahydro-pyrrolo[3,2-b]pyrrole-1-yl]-1-(4-hydroxy-benzyl)-2-oxo-ethyl]-3-bromo-benzamide]
< 5 µM: Bovine cathepsin S | human cathepsin B

O=C(N[C@@H](Cc1ccc(O)cc1)C(=O)N1CC[C@@H]2[C@H]1C(=O)CN2C(=O)c1csc2ccccc12)c1cccc(Br)c1 [Example 323, (3aR,6aS)-N-[(1S)-2-[4-(Benzo[b]thiophene-3-carbonyl)-6-oxo-hexahydro-pyrrolo[3,2-b]pyrrole-1-yl]-1-(4-hydroxy-benzyl)-2-oxo-ethyl]-3-bromo-benzamide]
< 5 µM: Bovine cathepsin S | Wild-type cruzipain | human cathepsin B
